This assay deals with Botulinum neurotoxin type A light chain (Clostridium botulinum A ATCC 3502). The assay can be described thus: BoNT/A light chain protease inhibitors, dose response, biochemical, powder set 03 (AID 720673). As to conditions: BoNT/A LC protease, multiplex microsphere substrate cleavage assay.

As a reminder, the EC50 is the concentration that produces a half-maximal response.

SMILES strings stand for the structures. The source made the active and inactive calls. The rule behind the calls is not given here.

As for `O=C(Nc1ccc2nc(-c3ccccc3)c(-c3ccccc3)nc2c1)OCc1ccccc1`, the EC50 was > 20 µM (inactive).
For the compound `CC(C)OC(=O)Nc1ccc2nc(-c3cccs3)c(-c3cccs3)nc2c1`, the EC50 was > 20 µM (inactive).
The figure for `CC(C)CS(=O)(=O)Nc1ccc2nc(-c3cccs3)c(-c3cccs3)nc2c1` is > 20 µM (inactive); for `CS(=O)(=O)c1ccc(-c2cn3nc(-c4ccccc4)c(-c4ccccc4)nc3n2)cc1` it is 11.6 µM.
`O=C(Nc1ccc2nc(-c3cccs3)c(-c3cccs3)nc2c1)C1CCC1`: the EC50 is > 20 µM (inactive).
Regarding `O=S(=O)(Nc1ccc2nc(-c3cccs3)c(-c3cccs3)nc2c1)C1CC1`, the EC50 is > 20 µM (inactive).
Take `COc1ccc(-c2cn3nc(-c4ccc(F)cc4)c(-c4ccc(F)cc4)nc3n2)c(OC)c1`: the EC50 was 5.7 µM.
As to `CS(=O)(=O)c1ccc(-c2cn3nc(-c4ccc(F)cc4)c(-c4ccc(F)cc4)nc3n2)cc1`, the EC50 is > 20 µM (inactive).
With `CCCOC(=O)Nc1ccc2nc(-c3ccccc3)c(-c3ccccc3)nc2c1`, the EC50 was > 20 µM (inactive).
The figure for `O=C(Nc1ccc2nc(-c3cccs3)c(-c3cccs3)nc2c1)NC1CCCC1` is > 20 µM (inactive).
Take `Fc1ccc(-c2cn3nc(-c4ccccc4)c(-c4ccccc4)nc3n2)cc1`: the EC50 is > 20 µM (inactive).
Consider `CCS(=O)(=O)Nc1ccc2nc(-c3ccccc3)c(-c3ccccc3)nc2c1`, for which the EC50 is > 20 µM (inactive).
Regarding `Cc1ccc(-c2cn3nc(-c4ccc(F)cc4)c(-c4ccc(F)cc4)nc3n2)cc1`, the EC50 was 7.7 µM.
For the compound `Cc1ccc(-c2nc3nc(-c4cccc(F)c4)cn3nc2-c2ccc(C)cc2)cc1`, the EC50 was 5.2 µM.
For the compound `COc1ccccc1-c1cn2nc(-c3ccccc3)c(-c3ccccc3)nc2n1`, the EC50 is 10.9 µM.
As to `Fc1ccc(-c2nc3nc(-c4ccc(OC(F)(F)F)cc4)cn3nc2-c2ccc(F)cc2)cc1`, the EC50 was 15.3 µM.
In the case of `COc1ccc(-c2cn3nc(-c4ccc(C)cc4)c(-c4ccc(C)cc4)nc3n2)cc1`, the EC50 is 5 µM.
For the compound `COc1cccc(-c2cn3nc(-c4ccccc4)c(-c4ccccc4)nc3n2)c1`, the EC50 is 16.2 µM.
In the case of `Fc1ccc(-c2cn3nc(-c4ccc(F)cc4)c(-c4ccc(F)cc4)nc3n2)cc1`, the EC50 was 6.7 µM.
Take `COc1ccc(-c2nc3nc(-c4ccc(C)cc4)cn3nc2-c2ccc(OC)cc2)cc1`: the EC50 is > 20 µM (inactive).
Regarding `COc1ccc(-c2cn3nc(-c4ccc(C)cc4)c(-c4ccc(C)cc4)nc3n2)c(OC)c1`, the EC50 was 9.5 µM.
Next, `COc1ccc(-c2nc3nc(-c4ccc(OC(F)(F)F)cc4)cn3nc2-c2ccc(OC)cc2)cc1`: 4.2 µM; `CCOC(=O)Nc1ccc2nc(-c3cccs3)c(-c3cccs3)nc2c1`: > 20 µM (inactive); `Cc1ccc(-c2nc3nc(-c4ccc(OC(F)(F)F)cc4)cn3nc2-c2ccc(C)cc2)cc1`: 4 µM.
As to `CC(=O)Nc1ccc2nc(-c3ccccc3)c(-c3ccccc3)nc2c1`, the EC50 is > 20 µM (inactive).
Take `Cc1ccc(-c2nc3nc(-c4ccccc4)cn3nc2-c2ccc(C)cc2)cc1`: the EC50 was 7.4 µM.
Next, `CCOC(=O)Nc1ccc2nc(-c3ccccc3)c(-c3ccccc3)nc2c1`: > 20 µM (inactive).
As for `O=C(Nc1ccc2nc(-c3ccccc3)c(-c3ccccc3)nc2c1)C1CCCC1`, the EC50 was > 20 µM (inactive).
Turning to `CCC(=O)Nc1ccc2nc(-c3ccccc3)c(-c3ccccc3)nc2c1`, the EC50 is > 20 µM (inactive).
Consider `N#Cc1ccc(-c2cn3nc(-c4ccccc4)c(-c4ccccc4)nc3n2)cc1`, for which the EC50 is > 20 µM (inactive).
Regarding `CC(C)(C)C(=O)Nc1ccc2nc(-c3ccccc3)c(-c3ccccc3)nc2c1`, the EC50 is > 20 µM (inactive).
Next, `COc1ccc(-c2nc3nc(-c4cccc(F)c4)cn3nc2-c2ccc(OC)cc2)cc1`: 7 µM.
On to `COC(=O)Nc1ccc2nc(-c3cccs3)c(-c3cccs3)nc2c1`, for which the EC50 was > 20 µM (inactive).
With `CC(Oc1ccccc1)C(=O)Nc1ccc2nc(-c3ccccc3)c(-c3ccccc3)nc2c1` (configuration not stated), the EC50 is > 20 µM (inactive).
On to `CCNC(=S)Nc1ccc2nc(-c3ccccc3)c(-c3ccccc3)nc2c1`, for which the EC50 is > 20 µM (inactive).
Regarding `CCC(=O)Nc1ccc2nc(-c3cccs3)c(-c3cccs3)nc2c1`, the EC50 was > 20 µM (inactive).
For `COc1cccc(-c2cn3nc(-c4ccc(F)cc4)c(-c4ccc(F)cc4)nc3n2)c1`, the half-maximal effective concentration (EC50) is 11.1 µM.
`CCCS(=O)(=O)Nc1ccc2nc(-c3cccs3)c(-c3cccs3)nc2c1`: the EC50 was > 20 µM (inactive).
Consider `CC(C)(C)NC(=O)Nc1ccc2nc(-c3ccccc3)c(-c3ccccc3)nc2c1`, for which the EC50 is > 20 µM (inactive).
The figure for `Cc1ccc(-c2nc3nc(-c4ccc(F)cc4)cn3nc2-c2ccc(C)cc2)cc1` is 7.6 µM; for `COc1ccc(-c2cn3nc(-c4ccc(OC)cc4)c(-c4ccc(OC)cc4)nc3n2)cc1` it is 5.7 µM.
In the case of `O=C(Nc1ccc2nc(-c3cccs3)c(-c3cccs3)nc2c1)C1CC1`, the EC50 was > 20 µM (inactive).
In the case of `COc1ccc(-c2nc3nc(-c4ccc(F)cc4)cn3nc2-c2ccc(OC)cc2)cc1`, the EC50 was 4 µM.
Turning to `Clc1ccc(-c2cn3nc(-c4ccccc4)c(-c4ccccc4)nc3n2)c(Cl)c1`, the EC50 is > 20 µM (inactive).
Regarding `N#Cc1ccc(-c2cn3nc(-c4ccc(F)cc4)c(-c4ccc(F)cc4)nc3n2)cc1`, the EC50 was > 20 µM (inactive).
Consider `COC(=O)Nc1ccc2nc(-c3ccccc3)c(-c3ccccc3)nc2c1`, for which the EC50 is > 20 µM (inactive).
On to `CC(C)NC(=O)Nc1ccc2nc(-c3ccccc3)c(-c3ccccc3)nc2c1`, for which the EC50 was > 20 µM (inactive).
For `Fc1ccc(-c2nc3nc(-c4ccccc4)cn3nc2-c2ccc(F)cc2)cc1`, the EC50 was 11.1 µM.
As for `CC(C)NC(=O)Nc1ccc2nc(-c3cccs3)c(-c3cccs3)nc2c1`, the EC50 is > 20 µM (inactive).
On to `CCCOC(=O)Nc1ccc2nc(-c3cccs3)c(-c3cccs3)nc2c1`, for which the EC50 is > 20 µM (inactive).
As for `O=S(=O)(Nc1ccc2nc(-c3ccccc3)c(-c3ccccc3)nc2c1)C1CC1`, the EC50 was > 20 µM (inactive).
The figure for `COc1ccc(-c2nc3nc(-c4ccccc4)cn3nc2-c2ccc(OC)cc2)cc1` is 9.2 µM; for `COc1ccc(-c2nc3nc(-c4ccc(S(C)(=O)=O)cc4)cn3nc2-c2ccc(OC)cc2)cc1` it is > 20 µM (inactive).
Take `COc1ccc(-c2nc3nc(-c4ccc(C#N)cc4)cn3nc2-c2ccc(OC)cc2)cc1`: the EC50 was 2.4 µM.
In the case of `CCCNC(=O)Nc1ccc2nc(-c3ccccc3)c(-c3ccccc3)nc2c1`, the EC50 was > 20 µM (inactive).
The figure for `COc1ccc(-c2cn3nc(-c4ccc(F)cc4)c(-c4ccc(F)cc4)nc3n2)cc1` is 7.1 µM.
The figure for `COc1ccc(-c2cn3nc(-c4ccccc4)c(-c4ccccc4)nc3n2)c(OC)c1` is 13.2 µM.
As to `CCNC(=O)Nc1ccc2nc(-c3ccccc3)c(-c3ccccc3)nc2c1`, the EC50 was > 20 µM (inactive).
With `FC(F)(F)Oc1ccc(-c2cn3nc(-c4ccccc4)c(-c4ccccc4)nc3n2)cc1`, the EC50 is > 20 µM (inactive).
With `Fc1cccc(-c2cn3nc(-c4ccccc4)c(-c4ccccc4)nc3n2)c1`, the EC50 was > 20 µM (inactive).
The figure for `O=C(Nc1ccc2nc(-c3ccccc3)c(-c3ccccc3)nc2c1)C1CCC1` is > 20 µM (inactive); for `CC(C)CS(=O)(=O)Nc1ccc2nc(-c3ccccc3)c(-c3ccccc3)nc2c1` it is > 20 µM (inactive); for `CCCS(=O)(=O)Nc1ccc2nc(-c3ccccc3)c(-c3ccccc3)nc2c1` it is > 20 µM (inactive).
The figure for `Cc1ccc(-c2nc3nc(-c4ccc(S(C)(=O)=O)cc4)cn3nc2-c2ccc(C)cc2)cc1` is 7.6 µM.
As for `CCCCOC(=O)Nc1ccc2nc(-c3ccccc3)c(-c3ccccc3)nc2c1`, the EC50 was > 20 µM (inactive).
In the case of `CCNC(=O)Nc1ccc2nc(-c3cccs3)c(-c3cccs3)nc2c1`, the EC50 was 14.3 µM.
Take `Cc1ccc(-c2nc3nc(-c4ccc(C#N)cc4)cn3nc2-c2ccc(C)cc2)cc1`: the EC50 was 4.7 µM.
Turning to `O=C(Nc1ccc2nc(-c3cccs3)c(-c3cccs3)nc2c1)OCc1ccccc1`, the EC50 is 10.6 µM.
Regarding `Fc1ccc(-c2nc3nc(-c4cccc(F)c4)cn3nc2-c2ccc(F)cc2)cc1`, the EC50 is 8.6 µM.
Next, `O=C(Nc1ccc2nc(-c3ccccc3)c(-c3ccccc3)nc2c1)C1CCCCC1`: > 20 µM (inactive); `COc1ccc(-c2nc3nc(-c4ccc(OC)cc4OC)cn3nc2-c2ccc(OC)cc2)cc1`: > 20 µM (inactive); `COc1cccc(-c2cn3nc(-c4ccc(C)cc4)c(-c4ccc(C)cc4)nc3n2)c1`: 6.6 µM.
Next, `CC(C)OC(=O)Nc1ccc2nc(-c3ccccc3)c(-c3ccccc3)nc2c1`: > 20 µM (inactive); `CCCCOC(=O)Nc1ccc2nc(-c3cccs3)c(-c3cccs3)nc2c1`: > 20 µM (inactive); `COc1ccccc1-c1cn2nc(-c3ccc(F)cc3)c(-c3ccc(F)cc3)nc2n1`: 6.2 µM.
In the case of `COc1ccccc1-c1cn2nc(-c3ccc(C)cc3)c(-c3ccc(C)cc3)nc2n1`, the EC50 is 12.4 µM.
For `Cc1ccc(-c2cn3nc(-c4ccc(C)cc4)c(-c4ccc(C)cc4)nc3n2)cc1`, the half-maximal effective concentration (EC50) was 4.7 µM.
`O=C(Nc1ccc2nc(-c3ccccc3)c(-c3ccccc3)nc2c1)NC1CCCC1`: the EC50 was > 20 µM (inactive).
The figure for `COc1ccc(-c2nc3nc(-c4ccccc4OC)cn3nc2-c2ccc(OC)cc2)cc1` is 8.9 µM; for `O=C(Nc1ccc2nc(-c3cccs3)c(-c3cccs3)nc2c1)C1CCCC1` it is > 20 µM (inactive); for `COc1ccc(-c2nc3nc(-c4cccc(OC)c4)cn3nc2-c2ccc(OC)cc2)cc1` it is 14.7 µM.
Next, `O=C(Nc1ccc2nc(-c3ccccc3)c(-c3ccccc3)nc2c1)C1CC1`: > 20 µM (inactive).

These data come from PubChem BioAssay AID720673 (NMMLSC, 2013).
